Experimental data: ChEMBL document CHEMBL1201862, “PubChem BioAssay data set” (2004)
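All cell lines were grown in 96-well plates and treated with compound for 48 hours. At the GI50, growth is halved.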 Active and inactive are the calls of the source. No stated cut-off is given here; in the data, active = GI50 up to about 1.1 µM and inactive = higher.

Columns and labels:
Assay in all cases: DTP human tumour cell line panel, 48 h
HT-29 = test system: HT-29
LOX IMVI = test system: LOX IMVI
PC-3 = test system: PC-3
SK-MEL-5 = test system: SK-MEL-5
SK-OV-3 = test system: SK-OV-3
K562 = test system: K562
SR = test system: SR
DU-145 = test system: DU-145
OVCAR-8 = test system: OVCAR-8
OVCAR-4 = test system: OVCAR-4
SF-295 = test system: SF-295
OVCAR-3 = test system: OVCAR-3
HOP-62 = test system: HOP-62
Malme-3M = test system: Malme-3M
MCF7 = test system: MCF7
BT-549 = test system: BT-549
SN12C = test system: SN12C
HOP-92 = test system: HOP-92
SK-MEL-2 = test system: SK-MEL-2
HCT-116 = test system: HCT-116

How did the GI50 (HT-29) turn out when CN(C)CCNC(=O)c1cccc2nc3c(ccc4ccccc43)nc12 was run?
The GI50 was 1.56 µM (inactive).

And the GI50 (LOX IMVI)?
The GI50 was 1.08 µM (active).

And the GI50 (PC-3)?
The GI50 was 2.79 µM (inactive).

What about the GI50 (SK-MEL-5) of the same compound?
The GI50 was 1.76 µM (inactive).

And the GI50 (SK-OV-3)?
Its GI50 is 5.42 µM (inactive).

What about the GI50 (K562) of the same compound?
Its GI50 is 1.52 µM (inactive).

And the GI50 (SR)?
Its GI50 is 0.362 µM (active).

And the GI50 (DU-145)?
Its GI50 is 4.85 µM (inactive).

And the GI50 (OVCAR-8)?
Its GI50 is 1.73 µM (inactive).

What about the GI50 (OVCAR-4) of the same compound?
Its GI50 is 2.21 µM (inactive).

What about the GI50 (SF-295) of the same compound?
Its GI50 is 2.56 µM (inactive).

And the GI50 (OVCAR-3)?
The GI50 was 7.89 µM (inactive).

And the GI50 (HOP-62)?
The GI50 was 2.25 µM (inactive).

And the GI50 (Malme-3M)?
The GI50 was 1.56 µM (inactive).

And the GI50 (MCF7)?
The GI50 was 0.476 µM (active).

What about the GI50 (BT-549) of the same compound?
Its GI50 is 10.6 µM (inactive).

What about the GI50 (SN12C) of the same compound?
The GI50 was 2.48 µM (inactive).

What about the GI50 (HOP-92) of the same compound?
The GI50 was 3.61 µM (inactive).

What about the GI50 (SK-MEL-2) of the same compound?
The GI50 was 1.91 µM (inactive).

What about the GI50 (HCT-116) of the same compound?
The GI50 was 1.75 µM (inactive).

How did the GI50 (HT-29) turn out when CCOC1NC(=O)Oc2ccccc21 (stereo not given) was run?
Its GI50 is > 100 µM (inactive).

And the GI50 (LOX IMVI)?
Its GI50 is > 100 µM (inactive).

What about the GI50 (PC-3) of the same compound?
The GI50 was > 100 µM (inactive).

What about the GI50 (SK-MEL-5) of the same compound?
Its GI50 is > 100 µM (inactive).

What about the GI50 (SK-OV-3) of the same compound?
The GI50 was > 100 µM (inactive).

What about the GI50 (K562) of the same compound?
Its GI50 is > 100 µM (inactive).

What about the GI50 (SR) of the same compound?
The GI50 was > 100 µM (inactive).

What about the GI50 (DU-145) of the same compound?
The GI50 was > 100 µM (inactive).

What about the GI50 (OVCAR-8) of the same compound?
Its GI50 is > 100 µM (inactive).

And the GI50 (OVCAR-4)?
The GI50 was > 100 µM (inactive).

What about the GI50 (SF-295) of the same compound?
Its GI50 is > 100 µM (inactive).

What about the GI50 (OVCAR-3) of the same compound?
Its GI50 is 68.2 µM (inactive).

And the GI50 (HOP-62)?
Its GI50 is > 100 µM (inactive).

And the GI50 (Malme-3M)?
The GI50 was > 100 µM (inactive).

And the GI50 (MCF7)?
Its GI50 is > 100 µM (inactive).

What about the GI50 (BT-549) of the same compound?
Its GI50 is > 100 µM (inactive).

And the GI50 (SN12C)?
Its GI50 is > 100 µM (inactive).

And the GI50 (HOP-92)?
The GI50 was > 100 µM (inactive).

What about the GI50 (SK-MEL-2) of the same compound?
The GI50 was > 100 µM (inactive).

What about the GI50 (HCT-116) of the same compound?
Its GI50 is > 100 µM (inactive).

Which GI50 (HT-29) does the source give for COC(=O)C1=C(OC(=O)c2ccccc2)C(C(=O)OC)[C@]2(O)[C@@H](C(=O)OC)[C@H]1C[C@@H](c1ccccc1)[C@@H]2C(=O)OC (stereo not given in full) here?
Its GI50 is 15.7 µM (inactive).

And the GI50 (LOX IMVI)?
Its GI50 is 9.31 µM (inactive).

And the GI50 (PC-3)?
The GI50 was 4.82 µM (inactive).

And the GI50 (SK-MEL-5)?
The GI50 was 4.85 µM (inactive).

What about the GI50 (SK-OV-3) of the same compound?
The GI50 was 10.6 µM (inactive).

What about the GI50 (K562) of the same compound?
Its GI50 is 3.33 µM (inactive).

What about the GI50 (SR) of the same compound?
The GI50 was 8.87 µM (inactive).

What about the GI50 (DU-145) of the same compound?
Its GI50 is 9.4 µM (inactive).

And the GI50 (OVCAR-8)?
The GI50 was 6.11 µM (inactive).

What about the GI50 (OVCAR-4) of the same compound?
Its GI50 is 10.6 µM (inactive).

What about the GI50 (SF-295) of the same compound?
Its GI50 is 5.82 µM (inactive).

And the GI50 (OVCAR-3)?
The GI50 was 10.8 µM (inactive).

What about the GI50 (HOP-62) of the same compound?
The GI50 was 13.2 µM (inactive).

What about the GI50 (Malme-3M) of the same compound?
Its GI50 is 13.5 µM (inactive).

And the GI50 (MCF7)?
Its GI50 is 3.01 µM (inactive).

What about the GI50 (BT-549) of the same compound?
Its GI50 is 12.2 µM (inactive).

What about the GI50 (SN12C) of the same compound?
The GI50 was 8.43 µM (inactive).

What about the GI50 (HOP-92) of the same compound?
The GI50 was 2.82 µM (inactive).

And the GI50 (SK-MEL-2)?
Its GI50 is 2.81 µM (inactive).

And the GI50 (HCT-116)?
Its GI50 is 3.96 µM (inactive).

With CC(C)C(OC(=O)c1cc(NC(=S)c2ccccc2)ccc1Cl)C(C)C as the compound, how does the GI50 (HT-29) read?
Its GI50 is 9.31 µM (inactive).

What about the GI50 (LOX IMVI) of the same compound?
The GI50 was 19.8 µM (inactive).

And the GI50 (PC-3)?
The GI50 was 8.53 µM (inactive).

What about the GI50 (SK-MEL-5) of the same compound?
Its GI50 is 14.2 µM (inactive).

What about the GI50 (SK-OV-3) of the same compound?
Its GI50 is 32.4 µM (inactive).

What about the GI50 (K562) of the same compound?
The GI50 was 25.7 µM (inactive).

And the GI50 (SR)?
Its GI50 is 11.9 µM (inactive).

And the GI50 (DU-145)?
Its GI50 is 24.2 µM (inactive).

And the GI50 (OVCAR-8)?
The GI50 was 22.9 µM (inactive).

What about the GI50 (OVCAR-4) of the same compound?
The GI50 was 17.6 µM (inactive).

And the GI50 (SF-295)?
Its GI50 is 4.53 µM (inactive).

What about the GI50 (OVCAR-3) of the same compound?
Its GI50 is 16.4 µM (inactive).

And the GI50 (HOP-62)?
The GI50 was 29.6 µM (inactive).

And the GI50 (Malme-3M)?
Its GI50 is 20.4 µM (inactive).

And the GI50 (MCF7)?
Its GI50 is 17.3 µM (inactive).

What about the GI50 (BT-549) of the same compound?
Its GI50 is 20.8 µM (inactive).

What about the GI50 (SN12C) of the same compound?
Its GI50 is 14.7 µM (inactive).

And the GI50 (HOP-92)?
Its GI50 is 8.39 µM (inactive).

And the GI50 (SK-MEL-2)?
Its GI50 is 16 µM (inactive).

And the GI50 (HCT-116)?
The GI50 was 12.3 µM (inactive).

Which GI50 (HT-29) does the source give for C[Si](C)(c1ccccc1)[C@H]1CCCC=C1CCNC1c2ccccc2CCc2ccccc21 here?
Its GI50 is 28.7 µM (inactive).

And the GI50 (LOX IMVI)?
Its GI50 is 70.6 µM (inactive).

And the GI50 (PC-3)?
The GI50 was > 100 µM (inactive).

What about the GI50 (SK-MEL-5) of the same compound?
The GI50 was 33.6 µM (inactive).

And the GI50 (SK-OV-3)?
Its GI50 is > 100 µM (inactive).

What about the GI50 (K562) of the same compound?
Its GI50 is 52.1 µM (inactive).

And the GI50 (SR)?
The GI50 was 36.6 µM (inactive).

What about the GI50 (DU-145) of the same compound?
The GI50 was > 100 µM (inactive).

And the GI50 (OVCAR-8)?
Its GI50 is > 100 µM (inactive).

What about the GI50 (OVCAR-4) of the same compound?
The GI50 was 41.5 µM (inactive).

What about the GI50 (SF-295) of the same compound?
The GI50 was 40.6 µM (inactive).

What about the GI50 (OVCAR-3) of the same compound?
Its GI50 is > 100 µM (inactive).

What about the GI50 (HOP-62) of the same compound?
Its GI50 is > 100 µM (inactive).

And the GI50 (Malme-3M)?
Its GI50 is 80 µM (inactive).

And the GI50 (MCF7)?
Its GI50 is 53 µM (inactive).

What about the GI50 (BT-549) of the same compound?
The GI50 was > 100 µM (inactive).

And the GI50 (SN12C)?
The GI50 was > 100 µM (inactive).

And the GI50 (HOP-92)?
The GI50 was 23.7 µM (inactive).

What about the GI50 (SK-MEL-2) of the same compound?
Its GI50 is > 100 µM (inactive).

What about the GI50 (HCT-116) of the same compound?
The GI50 was 48.3 µM (inactive).
